Assay results as given in PMC8569887 (Journal of medicinal chemistry, 2021).
“Also recorded” adds a separate entry of the source.

Legend:
[1] = test system: primary rat cortical neurons (axonal AcTub staining); type: cell-based; conditions: 1 μM compound; for AcTub staining and axonal processes upon co-addition with okadaic acid: +OA (15 nM, 8 hours); for axonal acetyl-tubulin staining in the absence of OA: relative to vehicle
HeLa cells = assay: Cytotoxicity in rapidly dividing HeLa cells; type: cell-based; conditions: values in Supporting Information
QBI293 cells = assay: Cytotoxicity in rapidly dividing QBI293 cells; type: cell-based; conditions: values in Supporting Information
[2] = Brain and plasma pharmacokinetics after i.p. dosing; type: in vivo; conditions: CD1 mice
[3] = test system: primary mouse cortical neurons (AcTub levels); assay: AcTub ELISA in primary mouse cortical neurons treated with okadaic acid; type: cell-based; conditions: 10 μM (higher concentration)

With CC(C)[C@@H](C)Nc1c(-c2c(F)cc(F)cc2F)c(Cl)nc2ncnn12 [Compound 3, reference compound] the “AcTub staining and axonal processes upon co-addition with okadaic acid” value [1] was “normalization of AcTub staining and axonal processes” and the “axonal acetyl-tubulin staining in the absence of OA” value [1] was “increased axonal acetyl-tubulin staining”.

In the case of CC(C)[C@@H](Nc1c(-c2c(F)cc(F)cc2F)c(Cl)nc2ncnn12)C(F)(F)F [Compound 46, (R)-5-Chloro-N-(1,1,1-trifluoro-3-methylbutan-2-yl)-6-(2,4,6-trifluorophenyl)-[1,2,4]triazolo[1,5-a]pyrimidin-7-amine], the “cytotoxicity IC50, side-by-side comparison of enantiomers” value (“cytotoxicity IC50” below) (HeLa cells) is reported as “did not reveal significant differences in IC50 values” and the “cytotoxicity IC50” value (QBI293 cells) is reported as “did not reveal significant differences in IC50 values”.

For CC(C)[C@H](Nc1c(-c2c(F)cc(F)cc2F)c(Cl)nc2ncnn12)C(F)(F)F [Compound 47, (S)-5-Chloro-N-(1,1,1-trifluoro-3-methylbutan-2-yl)-6-(2,4,6-trifluorophenyl)-[1,2,4]triazolo[1,5-a]pyrimidin-7-amine], the “cytotoxicity IC50” value (HeLa cells) was “did not reveal significant differences in IC50 values” and the “cytotoxicity IC50” value (QBI293 cells) was “did not reveal significant differences in IC50 values”.

For C[C@@H](Nc1c(-c2c(F)cc(C#N)cc2F)c(Cl)nc2ncnn12)C(C)(C)C [Compound 69, (R)-4-(5-Chloro-7-((3,3-dimethylbutan-2-yl)amino)-[1,2,4]triazolo[1,5-a]pyrimidin-6-yl)-3,5-difluorobenzonitrile], the “AcTub staining and axonal processes upon co-addition with okadaic acid” value [1] was “protects the MT network from okadaic acid-induced collapse; also recorded: normalization of AcTub staining and axonal processes”, the “axonal acetyl-tubulin staining in the absence of OA” value [1] was “increased axonal acetyl-tubulin staining” and the “metabolic stability from plasma PK compared with lead compound 3” value ([2]; i.p. dosing, compared to 3) was “greater metabolic stability”. For the same molecule, the “clearance compared to 3” value ([2]; i.p. injection) was “reduced clearance”, the “plasma half-life compared to 3” value ([2]; i.p. injection) was “increased plasma half-life” and the “AcTub levels in neuron homogenates in the presence of OA” value [3] was “AcTub levels comparable to those in neurons without OA treatment”.
